Results on 34 compounds are retold here after ChEMBL document CHEMBL3853265 (Medchemcomm, 2016).

Data set [1] addresses T1, Solute carrier family 22 member 12 (Homo sapiens, UniProt Q96S37).
T1 sequence (Q96S37 whole entry): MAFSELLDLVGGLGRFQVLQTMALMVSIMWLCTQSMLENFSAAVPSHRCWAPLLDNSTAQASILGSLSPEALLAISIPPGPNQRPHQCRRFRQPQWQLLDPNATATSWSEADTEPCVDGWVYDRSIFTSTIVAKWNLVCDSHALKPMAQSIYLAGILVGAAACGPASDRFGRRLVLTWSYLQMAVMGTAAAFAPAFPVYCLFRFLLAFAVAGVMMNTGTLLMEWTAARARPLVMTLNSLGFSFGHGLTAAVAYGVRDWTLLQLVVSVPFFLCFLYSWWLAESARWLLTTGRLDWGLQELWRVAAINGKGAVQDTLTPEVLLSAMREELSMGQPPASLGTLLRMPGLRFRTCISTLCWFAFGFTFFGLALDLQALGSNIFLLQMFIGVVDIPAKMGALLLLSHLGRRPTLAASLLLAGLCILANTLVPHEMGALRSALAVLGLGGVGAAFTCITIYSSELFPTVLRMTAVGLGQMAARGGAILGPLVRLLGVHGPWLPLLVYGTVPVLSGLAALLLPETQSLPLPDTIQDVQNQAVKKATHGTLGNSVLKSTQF
The data set is described as follows: Inhibition of human C-terminal eGFP-tagged URAT1 long isoform expressed in CHO cells assessed as decrease in [14C]-uric acid uptake preincubated for 15 mins followed by [14C]-uric acid addition and incubated in dark for 3 hrs by scintillation counting method. The data set is classed as cell-based.

A further data set addresses CYP2C9 (Homo sapiens, UniProt P11712). Put plainly: Inhibition of CYP2C9 (unknown origin) at 3 uM relative to control. It counts as ADME.
Data set [2] can be described thus: Octanol-water partition co-efficient, log D of the compound by shake flask method. The data set is classed as physicochemical.
Data set [3] is described as follows: Intrinsic clearance in human liver microsomes. It counts as ADME. As to conditions: read-out: CLH.
Data set [4] in a line: Dissociation constant, pKa of the compound. The data set is classed as physicochemical.

By IC50 is commonly meant the concentration needed to halve the response being measured. The inhibition is the drop in the measured response relative to a control, in per cent. A high value points to a response far below the control. As a reminder, the logD is lipophilicity at a set pH, counting ionised and neutral species. The low end stands for lower lipophilicity, the high end for higher lipophilicity. The term pKa denotes the pH at which an ionisable group is half protonated. The low end stands for a group that gives up its proton readily, the high end for a group that holds its proton tightly.

CYP2C9, sequence (P11712 whole entry): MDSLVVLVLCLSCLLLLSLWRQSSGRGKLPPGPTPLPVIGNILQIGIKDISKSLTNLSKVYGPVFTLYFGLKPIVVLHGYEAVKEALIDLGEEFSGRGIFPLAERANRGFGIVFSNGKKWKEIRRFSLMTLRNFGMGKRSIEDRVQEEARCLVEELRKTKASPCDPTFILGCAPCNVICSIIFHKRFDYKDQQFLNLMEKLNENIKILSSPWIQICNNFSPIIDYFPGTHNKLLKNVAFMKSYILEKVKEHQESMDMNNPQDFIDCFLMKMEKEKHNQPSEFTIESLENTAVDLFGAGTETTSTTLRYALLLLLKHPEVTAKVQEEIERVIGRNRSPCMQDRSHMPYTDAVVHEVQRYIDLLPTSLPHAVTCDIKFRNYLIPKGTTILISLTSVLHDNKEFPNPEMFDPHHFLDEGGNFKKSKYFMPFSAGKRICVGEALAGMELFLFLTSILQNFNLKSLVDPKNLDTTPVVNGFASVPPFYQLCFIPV

Take `N#Cc1cc(Cl)ccc1NS(=O)(=O)c1ccccc1C(F)(F)F`: the IC50 in data set [1] was 0.111 µM.
In turn, `COc1cncc(NS(=O)(=O)c2ccccc2C(F)(F)F)c1` registered an inhibition at 3 µM against CYP2C9 of 18%. In data set [2], this compound yielded a pH-dependent lipophilicity (logD) of 1.3. For the same compound, the microsomal CLint in data set [3] is under 8 µL/min/mg. Besides, the half-inhibitory concentration (IC50) in data set [1] stood at 0.089 µM.
In the case of `O=S(=O)(Nc1ccc(F)c(C(F)(F)F)c1)c1ccccc1C(F)(F)F`, the IC50 in data set [1] was found to be 0.484 µM.
For `N#Cc1cc(NS(=O)(=O)c2ccccc2C(F)(F)F)ccc1Cl`, the inhibition at 3 µM on CYP2C9 amounted to 76%. The same compound returned a pKa in data set [4] of 5.8. The logD in data set [2] came to 2.3. Moreover, the microsomal CLint in data set [3] is under 12 µL/min/mg. In data set [1], the IC50 amounted to 0.018 µM.
Consider `N#Cc1ccc(NS(=O)(=O)c2ccccc2C(F)(F)F)cc1C(F)(F)F`, for which at 3 µM the inhibition against CYP2C9 was 61%. This compound also came in with a log distribution coefficient (logD) in data set [2] of 1.8. Further, the microsomal CLint in data set [3] is under 12 µL/min/mg. In addition, the IC50 in data set [1] was determined as 0.029 µM.
For `COc1ncccc1NS(=O)(=O)c1ccccc1C(F)(F)F`, in data set [1], the IC50 was determined as 3.92 µM.
`N#Cc1ccc(NS(=O)(=O)c2ccccc2C(F)(F)F)cc1Cl` gave an inhibition at 3 µM against CYP2C9 of 92%. This compound also yielded a pKa in data set [4] of 5.1. This compound also registered a pH-dependent lipophilicity (logD) in data set [2] of 1.8. Besides, the microsomal CLint in data set [3] came out at 11 µL/min/mg. The IC50 in data set [1] was determined as 0.018 µM.
Take `O=S(=O)(Nc1ccccc1F)c1ccccc1C(F)(F)F`: the inhibition at 3 µM on CYP2C9 was determined as 15%. In addition, the logD in data set [2] came to 2.4. The IC50 in data set [1] was 3.61 µM.
Consider `Cc1ccc(NS(=O)(=O)c2ccccc2C(F)(F)F)cn1`, for which the IC50 in data set [1] was determined as 1.03 µM.
On the same count and under the same terms, to `COc1ccccc1S(=O)(=O)Nc1ccc(C#N)c(Cl)c1` belongs 0.199 µM; to `N#Cc1ccc(NS(=O)(=O)c2ccccc2C#N)cc1Cl`, 0.156 µM.
Still for that read-out and setting: to `COc1ccc(NS(=O)(=O)c2ccccc2C(F)(F)F)cn1` belongs 1.17 µM; to `N#Cc1ccc(Cl)cc1NS(=O)(=O)c1ccccc1C(F)(F)F`, 0.187 µM; to `COc1ccncc1NS(=O)(=O)c1ccccc1C(F)(F)F`, over 10 µM.
Same read-out and setting: to `N#Cc1cc(NS(=O)(=O)c2ccccc2Cl)ccc1Cl` belongs 0.081 µM.
For `N#Cc1ccccc1NS(=O)(=O)c1ccccc1C(F)(F)F`, testing at 3 µM against CYP2C9 gave an inhibition of 11%. This compound also registered a logD in data set [2] of 0.8. Further, the microsomal CLint in data set [3] was determined as 19 µL/min/mg. In data set [1], the 50% inhibitory concentration (IC50) was found to be 0.616 µM.
Regarding `N#Cc1cc(NS(=O)(=O)c2ccccc2C#N)ccc1Cl`, in data set [1], the IC50 was 0.127 µM.
On to `Cc1ccccc1S(=O)(=O)Nc1ccc(Cl)c(C#N)c1`, for which the half-maximal inhibitory concentration (IC50) in data set [1] is 0.183 µM.
Still for that read-out and setting: to `N#Cc1ccc(NS(=O)(=O)c2ccccc2C(F)(F)F)cc1` belongs 0.119 µM; to `N#Cc1cc(NS(=O)(=O)c2ccccc2OC(F)(F)F)ccc1Cl`, 0.02 µM; to `N#Cc1ccc(Cl)c(NS(=O)(=O)c2ccccc2C(F)(F)F)c1`, 0.071 µM.
On the same count and under the same terms, to `O=S(=O)(Nc1ccc(F)c(F)c1)c1ccccc1C(F)(F)F` belongs 1.97 µM; to `Cc1ccncc1NS(=O)(=O)c1ccccc1C(F)(F)F`, over 10 µM.
Still for that read-out and setting: for `O=S(=O)(Nc1ccccc1OC(F)F)c1ccccc1C(F)(F)F` the value was 1.97 µM.
On to `N#Cc1ccc(NS(=O)(=O)c2ccccc2Cl)cc1Cl`, for which the IC50 in data set [1] was determined as 0.081 µM.
At CYP2C9, `O=S(=O)(Nc1cccc(OC(F)(F)F)c1)c1ccccc1C(F)(F)F` returned an inhibition at 3 µM of 81%. The compound also came in with a logD in data set [2] of 3.9. Besides, the microsomal CLint in data set [3] is 55 µL/min/mg. In addition, the IC50 in data set [1] stood at 1.48 µM.
As for `N#Cc1cccc(NS(=O)(=O)c2ccccc2C(F)(F)F)c1`, 3 µM produced 28% inhibition against CYP2C9. In data set [2], this compound came in with a logD of 1.9. The microsomal CLint in data set [3] is under 8 µL/min/mg. Further, in data set [1], the IC50 was 0.166 µM.
`O=S(=O)(Nc1cnc2ccccc2c1)c1ccccc1C(F)(F)F`: the inhibition at 3 µM against CYP2C9 worked out at 39%. In data set [2], this compound gave a pH-dependent lipophilicity (logD) of 2.5. The microsomal CLint in data set [3] turned out to be 153 µL/min/mg. Besides, the IC50 in data set [1] is 0.007 µM.
For `Cc1ccccc1S(=O)(=O)Nc1ccc(C#N)c(Cl)c1`, the IC50 in data set [1] worked out at 0.089 µM.
On CYP2C9, `N#Cc1cc(NS(=O)(=O)c2ccccc2C(F)(F)F)ccc1C(F)(F)F` gave an inhibition at 3 µM of 86%. In data set [4], this compound returned a pKa of 5.1. In data set [2], this compound came in with a logD of 2. Moreover, the microsomal CLint in data set [3] is 18 µL/min/mg. The 50% inhibitory concentration (IC50) in data set [1] worked out at 0.032 µM.
With `N#Cc1c(Cl)cccc1NS(=O)(=O)c1ccccc1C(F)(F)F`, the inhibition at 3 µM against CYP2C9 worked out at 86%. The logD in data set [2] turned out to be 1. In data set [3], the microsomal CLint came out at 30 µL/min/mg. In addition, in data set [1], the IC50 worked out at 0.023 µM.
Regarding `N#Cc1ccc(NS(=O)(=O)c2ccccc2C(F)(F)F)c(Cl)c1`, testing at 3 µM against CYP2C9 gave an inhibition of 82%. Also, the logD in data set [2] was 1.1. Further, the microsomal CLint in data set [3] turned out to be 14 µL/min/mg. Besides, the IC50 in data set [1] turned out to be 0.039 µM.
`Cc1cncc(NS(=O)(=O)c2ccccc2C(F)(F)F)c1`: the IC50 in data set [1] turned out to be 0.185 µM.
Consider `O=S(=O)(Nc1cncc(Br)c1)c1ccccc1C(F)(F)F`, for which, at CYP2C9, the inhibition at 3 µM came to 38%. The pKa in data set [4] was found to be 5.3. In data set [2], this compound showed a logD of 1.6. Moreover, the microsomal CLint in data set [3] worked out at 14 µL/min/mg. In addition, the 50% inhibitory concentration (IC50) in data set [1] is 0.035 µM.
